Earlier results, collected in patent publication US20230405042A1, “Compositions to Modify Intestinal Nutrient Absorption, Methods of Making and Uses Thereof” (McMaster University, priority 2022, published 2023).

Test system: rodents
Details: oral delivery or injection in rodents

C[C@H](O)C(=O)O [L-lactate]
Liver glycogen formation: hardly forms any liver glycogen

C[C@@H](O)C(=O)O [D-lactate]
Liver glycogen formation: leads to glycogen deposition in the liver
